molecular target: human ALK5 (Homo sapiens (Human), UniProt P36897); experiment: ADP-GLO Kinases assay, inhibition of ALK5 enzymatic activity; type: biochemical; conditions: Table 4; potency bins; purified recombinant human ALK5, ADP-Glo, 25° C.; read-out: ALK5 IC50
Description: The enzymatic activity of compounds of the present invention was monitored measuring the formation of ADP using the ADP-GLO Kinases assay. Following the incubation of the purified enzyme, a substrate and ATP, the produced ADP was converted into ATP, which in turn was converted into light by Ultra-Glo Luciferase. The luminescent signal positively correlated with ADP amount and kinase activity. Briefly, the kinase reaction was performed by incubating 2.6 nM of the purified, commercially available human ALK5 (recombinant TGF β1 N-term GST-tagged, 80-end), a final concentration of TGFβ1 peptide 94.5 μM (Promega, T36-58) and ultra-pure ATP (Promega V915B). […] All reactions/incubations were performed at 25° C. Compound and ALK5 kinase were mixed and incubated for 15 mins. Reactions were initiated by addition of ATP at a final concentration in the assay of 0.83 μM. After an incubation of 150 min, the reaction was stopped, and ADP production detected with ADP-Glo kit according to manufacturer's indications. The assay was performed in 384-well format and was validated using a selection of reference compounds that was tested in 11 point concentration-response curve.

Chain of human ALK5 (P36897 80-503 limits assumed): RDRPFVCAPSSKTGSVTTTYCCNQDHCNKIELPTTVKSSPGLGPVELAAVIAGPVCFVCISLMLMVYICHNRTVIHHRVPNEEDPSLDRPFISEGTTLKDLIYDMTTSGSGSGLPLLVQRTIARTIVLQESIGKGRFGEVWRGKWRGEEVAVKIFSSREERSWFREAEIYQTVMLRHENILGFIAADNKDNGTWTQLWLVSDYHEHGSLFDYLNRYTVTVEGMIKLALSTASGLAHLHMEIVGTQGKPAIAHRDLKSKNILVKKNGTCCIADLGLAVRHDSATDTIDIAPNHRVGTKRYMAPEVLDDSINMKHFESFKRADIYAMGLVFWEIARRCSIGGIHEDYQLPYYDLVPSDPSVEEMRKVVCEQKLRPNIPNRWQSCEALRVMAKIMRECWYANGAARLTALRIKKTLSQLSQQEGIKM

`CN(CCNS(C)(=O)=O)CCC(=O)Nc1cc(N2CCOc3cnc(-c4cc(Cl)ccc4F)cc32)ccn1` [Example 29, N-{4-[7-(5-chloro-2-fluorophenyl)-1H,2H,3H-pyrido[3,4-b][1,4]oxazin-1-yl]pyridin-2-yl}-3-[(2-methanesulfonamidoethyl)(methyl)amino]propanamide] and `CS(=O)(=O)NCCN1CCN(CCC(=O)Nc2cc(N3CCOc4cnc(-c5cc(Cl)ccc5F)cc43)ccn2)CC1` [Example 30, N-{4-[7-(5-chloro-2-fluorophenyl)-1H,2H,3H-pyrido[3,4-b][1,4]oxazin-1-yl]pyridin-2-yl}-3-[4-(2-methanesulfonamidoethyl)piperazin-1-yl]propanamide] cannot be ordered by IC50: less than 1 nM for the first, less than 1 nM for the second.

`CNC(=O)CCN1CCN(CCC(=O)Nc2cc(N3CCOc4cnc(-c5cc(Cl)ccc5F)cc43)ccn2)CC1` [Example 31, 3-{4-[2-({4-[7-(5-chloro-2-fluorophenyl)-1H,2H,3H-pyrido[3,4-b][1,4]oxazin-1-yl]pyridin-2-yl}carbamoyl)ethyl]piperazin-1-yl}-N-methylpropanamide] and `NC(=O)CCN1CCN(CCC(=O)Nc2cc(N3CCOc4cnc(-c5cc(Cl)ccc5F)cc43)ccn2)CC1` [Example 37, 3-[4-(2-carbamoylethyl)piperazin-1-yl]-N-{4-[7-(5-chloro-2-fluorophenyl)-1H,2H,3H-pyrido[3,4-b][1,4]oxazin-1-yl]pyridin-2-yl}propanamide] cannot be ordered by IC50: less than 1 nM for the first, less than 1 nM for the second.

`CN1CCC(CCC(=O)Nc2cc(N3CCOc4cnc(-c5cc(Cl)ccc5F)cc43)ccn2)CC1` [Example 32, N-{4-[7-(5-chloro-2-fluorophenyl)-1H,2H,3H-pyrido[3,4-b][1,4]oxazin-1-yl]pyridin-2-yl}-3-(1-methylpiperidin-4-yl)propanamide] and `CN1CCC(CCC(=O)Nc2cc(N3CCOc4cnc(-c5cc(Cl)ncc5F)cc43)ccn2)CC1` [Example 41, N-{4-[7-(2-chloro-5-fluoropyridin-4-yl)-1H,2H,3H-pyrido[3,4-b][1,4]oxazin-1-yl]pyridin-2-yl}-3-(1-methylpiperidin-4-yl)propanamide] cannot be ordered by IC50: less than 1 nM for the first, less than 1 nM for the second.

`CN1CCN(CCC(=O)Nc2cc(N3CCOc4cnc(-c5cc(C6CC6)ccc5F)cc43)ccn2)CC1` [Example 33, N-{4-[7-(5-cyclopropyl-2-fluorophenyl)-1H,2H,3H-pyrido[3,4-b][1,4]oxazin-1-yl]pyridin-2-yl}-3-(4-methylpiperazin-1-yl)propanamide] and `CC(C)c1ccc(F)c(-c2cc3c(cn2)OCCN3c2ccnc(NC(=O)CCN3CCN(C)CC3)c2)c1` [Example 34, N-(4-{7-[2-fluoro-5-(propan-2-yl)phenyl]-1H,2H,3H-pyrido[3,4-b][1,4]oxazin-1-yl}pyridin-2-yl)-3-(4-methylpiperazin-1-yl)propanamide] cannot be ordered by IC50: less than 1 nM for the first, less than 1 nM for the second.

`O=C(CCN1CCN(CCC(=O)Nc2cc(N3CCOc4cnc(-c5cc(Cl)ccc5F)cc43)ccn2)CC1)NCCO` [Example 35, 3-{4-[2-({4-[7-(5-chloro-2-fluorophenyl)-1H,2H,3H-pyrido[3,4-b][1,4]oxazin-1-yl]pyridin-2-yl}carbamoyl)ethyl]piperazin-1-yl}-N-(2-hydroxyethyl)propanamide] and `O=C(CCN1CCN(CCN(CCO)CCO)CC1)Nc1cc(N2CCOc3cnc(-c4cc(Cl)ccc4F)cc32)ccn1` [Example 36, 3-(4-{2-[bis(2-hydroxyethyl)amino]ethyl}piperazin-1-yl)-N-{4-[7-(5-chloro-2-fluorophenyl)-1H,2H,3H-pyrido[3,4-b][1,4]oxazin-1-yl]pyridin-2-yl}propanamide] cannot be ordered by IC50: less than 1 nM for the first, less than 1 nM for the second.

`CN1CCN(CCC(=O)Nc2cc(N3CCOc4cnc(-c5nc(Cl)ccc5F)cc43)ccn2)CC1` [Example 38, N-{4-[7-(6-chloro-3-fluoropyridin-2-yl)-1H,2H,3H-pyrido[3,4-b][1,4]oxazin-1-yl]pyridin-2-yl}-3-(4-methylpiperazin-1-yl)propanamide] and `CN1CCN(CCC(=O)Nc2cc(N3CCOc4cnc(-c5cc(Cl)ncc5F)cc43)ccn2)CC1` [Example 42, N-{4-[7-(2-chloro-5-fluoropyridin-4-yl)-1H,2H,3H-pyrido[3,4-b][1,4]oxazin-1-yl]pyridin-2-yl}-3-(4-methylpiperazin-1-yl)propanamide] cannot be ordered by IC50: less than 1 nM for the first, less than 1 nM for the second.

`CN1CCC(CCC(=O)Nc2cc(N3CCOc4cnc(-c5nc(Cl)ccc5F)cc43)ccn2)CC1` [Example 39, N-{4-[7-(6-chloro-3-fluoropyridin-2-yl)-1H,2H,3H-pyrido[3,4-b][1,4]oxazin-1-yl]pyridin-2-yl}-3-(1-methylpiperidin-4-yl)propanamide] and `CN1CCN(CC(=O)Nc2cc(N3CCOc4cnc(-c5cc(Cl)ccc5F)cc43)ccn2)CC1` [Example 43, N-{4-[7-(5-chloro-2-fluorophenyl)-1H,2H,3H-pyrido[3,4-b][1,4]oxazin-1-yl]pyridin-2-yl}-2-(4-methylpiperazin-1-yl)acetamide] cannot be ordered by IC50: less than 1 nM for the first, less than 1 nM for the second.

First: COCCC(=O)Nc1cc(N2CCOc3cnc(-c4cc(Cl)ccc4F)cc32)ccn1 [Example 40, N-{4-[7-(5-chloro-2-fluorophenyl)-1H,2H,3H-pyrido[3,4-b][1,4]oxazin-1-yl]pyridin-2-yl}-3-methoxypropanamide]
Second: COC(=O)C1CN(CCC(=O)Nc2cc(N3CCOc4cnc(-c5cc(Cl)ccc5F)cc43)ccn2)CCN1C (stereo not drawn) [Example 45, Methyl 4-[2-({4-[7-(5-chloro-2-fluorophenyl)-1H,2H,3H-pyrido[3,4-b][1,4]oxazin-1-yl]pyridin-2-yl}carbamoyl)ethyl]-1-methylpiperazine-2-carboxylate]
The IC50 of the first is higher: 5 to 10 nM for the first, less than 1 nM for the second.

First: CN1CCN(CCC(=O)Nc2cc(N3CCOc4c3cc(-c3cc(Cl)ccc3F)nc4C(=O)O)ccn2)CC1 [Example 44, 7-(5-chloro-2-fluorophenyl)-1-{2-[3-(4-methylpiperazin-1-yl)propanamido]pyridin-4-yl}-1H,2H,3H-pyrido[3,4-b][1,4]oxazine-5-carboxylic acid]
Second: CN1CCN(CCC(=O)Nc2cc(N3CCOc4c3cc(-c3cc(Cl)ccc3F)nc4N)ccn2)CC1 [Example 51, N-{4-[5-amino-7-(5-chloro-2-fluorophenyl)-1H,2H,3H-pyrido[3,4-b][1,4]oxazin-1-yl]pyridin-2-yl}-3-(4-methylpiperazin-1-yl)propanamide]
The IC50 of the first is higher: 1 to 5 nM for the first, less than 1 nM for the second.

`COC(=O)C1CN(CCC(=O)Nc2cc(N3CCOc4cnc(-c5cc(Cl)ccc5F)cc43)ccn2)CCN1` (stereo not drawn) [Example 46, Methyl 4-[2-({4-[7-(5-chloro-2-fluorophenyl)-1H,2H,3H-pyrido[3,4-b][1,4]oxazin-1-yl]pyridin-2-yl}carbamoyl)ethyl]piperazine-2-carboxylate] and `COC(=O)CC1CN(CCC(=O)Nc2cc(N3CCOc4cnc(-c5cc(Cl)ccc5F)cc43)ccn2)CCN1` (stereo not drawn) [Example 48, Methyl 2-{4-[2-({4-[7-(5-chloro-2-fluorophenyl)-1H,2H,3H-pyrido[3,4-b][1,4]oxazin-1-yl]pyridin-2-yl}carbamoyl)ethyl]piperazin-2-yl}acetate] cannot be ordered by IC50: less than 1 nM for the first, less than 1 nM for the second.

`COC(=O)CC1CN(CCC(=O)Nc2cc(N3CCOc4cnc(-c5cc(Cl)ccc5F)cc43)ccn2)CCN1C` (stereo not drawn) [Example 47, Methyl 2-{4-[2-({4-[7-(5-chloro-2-fluorophenyl)-1H,2H,3H-pyrido[3,4-b][1,4]oxazin-1-yl]pyridin-2-yl}carbamoyl)ethyl]-1-methylpiperazin-2-yl}acetate] and `COC(=O)CC1CN(C)CCN1CCC(=O)Nc1cc(N2CCOc3cnc(-c4cc(Cl)ccc4F)cc32)ccn1` (stereo not drawn) [Example 50, Methyl 2-{1-[2-({4-[7-(5-chloro-2-fluorophenyl)-1H,2H,3H-pyrido[3,4-b][1,4]oxazin-1-yl]pyridin-2-yl}carbamoyl)ethyl]-4-methylpiperazin-2-yl}acetate] cannot be ordered by IC50: less than 1 nM for the first, less than 1 nM for the second.

`COC(=O)C1CN(C)CCN1CCC(=O)Nc1cc(N2CCOc3cnc(-c4cc(Cl)ccc4F)cc32)ccn1` (stereo not drawn) [Example 49, Methyl 1-[2-({4-[7-(5-chloro-2-fluorophenyl)-1H,2H,3H-pyrido[3,4-b][1,4]oxazin-1-yl]pyridin-2-yl}carbamoyl)ethyl]-4-methylpiperazine-2-carboxylate] and `CN1CCN(CCNC(=O)Nc2cc(N3CCOc4cnc(-c5cc(Cl)ccc5F)cc43)ccn2)CC1` [Example 55, 1-(4-(7-(5-chloro-2-fluorophenyl)-2,3-dihydro-1H-pyrido[3,4-b][1,4]oxazin-1-yl)pyridin-2-yl)-3-(2-(4-methylpiperazin-1-yl)ethyl)urea] cannot be ordered by IC50: less than 1 nM for the first, less than 1 nM for the second.

`CN1CC2CC1CN2CC(=O)Nc1cc(N2CCOc3cnc(-c4cc(Cl)ccc4F)cc32)ccn1` (stereo not drawn) [Example 52, N-{4-[7-(5-chloro-2-fluorophenyl)-1H,2H,3H-pyrido[3,4-b][1,4]oxazin-1-yl]pyridin-2-yl}-2-{5-methyl-2,5-diazabicyclo[2.2.1]heptan-2-yl}acetamide] and `CN1CC2(C1)CN(CC(=O)Nc1cc(N3CCOc4cnc(-c5cc(Cl)ccc5F)cc43)ccn1)C2` [Example 53, N-{4-[7-(5-chloro-2-fluorophenyl)-1H,2H,3H-pyrido[3,4-b][1,4]oxazin-1-yl]pyridin-2-yl}-2-{6-methyl-2,6-diazaspiro[3.3]heptan-2-yl}acetamide] cannot be ordered by IC50: less than 1 nM for the first, less than 1 nM for the second.

For `CN1CC2(C1)CN(CC(=O)Nc1cc(N3CCOc4cnc(-c5cc(Cl)ccc5F)cc43)ccn1)CCO2` [Example 54, N-{4-[7-(5-chloro-2-fluorophenyl)-1H,2H,3H-pyrido[3,4-b][1,4]oxazin-1-yl]pyridin-2-yl}-2-{2-methyl-5-oxa-2,8-diazaspiro[3.5]nonan-8-yl}acetamide], the IC50 was less than 1 nM.

From patent publication US20240116947A1, “PYRIDO OXAZINE DERIVATIVES AS ALK5 INHIBITORS” (CHIESI FARMACEUTICI S.P.A., priority 2020, published 2024)
